According to ChEMBL document CHEMBL4715692, “Design, synthesis and activity evaluation of novel peptide fusion inhibitors targeting HIV-1 gp41” (Bioorg Med Chem, 2016):
The source made the active and inactive calls. No cut-off for these calls is given here. Where a SMILES comes first, the peptide text is derived from it. The star is where a group is joined. X1 = CCCCCCCCCCCCCCC(=O)O*

Columns and labels:
[1] = Inhibition of gp41 in HIV1 3B infected in human HeLa-MAGI-CCR5 cells harboring reporter gene comprising HIV1 LTR in the upstream and lacZ gene of Escherichia coli in the downstream assessed as inhibition of cell-cell fusion by optical microscopy analysis; format: cell-based; settings: Human immunodeficiency virus 1, 3B
[2] = tested on: Human immunodeficiency virus 1; assay: Binding affinity to gp41 NHR helix in HIV1 assessed as inhibition of gp41 6-helix conformation incubated for 1 hr by native PAGE analysis
[3] = tested on: Human immunodeficiency virus 1; assay: Binding affinity to gp41 NHR helix in HIV1 assessed as inhibition of gp41 6-helix conformation incubated for 1 hr by SDS-PAGE analysis
[4] = tested on: Human immunodeficiency virus 1; assay: Binding affinity to gp41 NHR helix in HIV1 assessed as interaction between compound-gp41 5-helix causing band deviation incubated for 1 hr by native PAGE analysis
[5] = tested on: Human immunodeficiency virus 1; assay: Binding affinity to gp41 NHR helix in HIV1 assessed as interaction between compound-gp41 5-helix causing band deviation incubated for 1 hr by SDS-PAGE analysis

Row | Compound | IC50 [1] [nM] | further results
1 | CC[C@H](C)[C@H](NC(=O)[C@H](CC(C)C)NC(=O)[C@H](CCC(=O)O)NC(=O)[C@H](CCC(=O)O)NC(=O)[C@@H](NC(=O)[C@H](CCCCN)NC(=O)[C@H](CCCCN)NC(=O)[C@@H](NC(=O)[C@H](Cc1ccc(O)cc1)NC(=O)[C@H](CCCNC(=N)N)NC(=O)[C@H](CCC(=O)O)NC(=O)[C@@H](NC(=O)[C@H](CCC(=O)O)NC(=O)[C@H](CC(=O)O)NC(=O)[C@H](CCCNC(=N)N)NC(=O)[C@H](Cc1c[nH]c2ccccc12)NC(=O)[C@H](CC(=O)O)NC(=O)[C@H](CS)NC(=O)[C@H](Cc1c[nH]c2ccccc12)NC(=O)[C@@H](NC(=O)[C@@H](N)CCSC)[C@@H](C)O)[C@@H](C)CC)[C@@H](C)O)[C@@H](C)CC)C(=O)N[C@@H](CCCNC(=N)N)C(=O)N[C@@H](C)C(=O)N[C@@H](C)C(=O)N[C@@H](CCC(N)=O)C(=O)N[C@@H](CCC(=O)O)C(=O)N[C@@H](CC(C)C)C(=O)N[C@@H](CCC(N)=O)C(=O)N[C@@H](CCC(=O)O)C(=O)N[C@@H](CCCCN)C(=O)N[C@@H](CC(N)=O)C(=O)N[C@@H](CCC(=O)O)C(=O)N[C@@H](C)C(=O)N[C@@H](C)C(=O)N[C@@H](CC(C)C)C(=O)N[C@@H](CCCCN)C(=O)N[C@@H](CCC(=O)O)C(=O)N[C@@H](CC(C)C)C(=O)O | 159 | 
2 | CC[C@H](C)[C@H](NC(=O)[C@H](CC(C)C)NC(=O)[C@H](CCC(=O)O)NC(=O)[C@H](CCC(=O)O)NC(=O)[C@@H](NC(=O)[C@H](CCCCN)NC(=O)[C@@H](CCCCN)NC(=O)[C@@H](NC(=O)[C@H](Cc1ccc(O)cc1)NC(=O)[C@H](CCCNC(=N)N)NC(=O)[C@H](CCC(=O)O)NC(=O)[C@@H](NC(=O)[C@H](CCC(=O)O)NC(=O)[C@H](CC(=O)O)NC(=O)[C@H](CCCNC(=N)N)NC(=O)[C@H](Cc1c[nH]c2ccccc12)NC(=O)[C@H](CC(=O)O)NC(=O)[C@H](CS)NC(=O)[C@H](Cc1c[nH]c2ccccc12)NC(=O)[C@@H](NC(=O)[C@@H](N)CCSC)[C@@H](C)O)[C@@H](C)CC)[C@@H](C)O)[C@@H](C)CC)C(=O)N[C@@H](CCCNC(=N)N)C(=O)N[C@@H](C)C(=O)N[C@@H](C)C(=O)N[C@@H](CCC(N)=O)C(=O)N[C@@H](CCC(=O)O)C(=O)N[C@@H](CC(C)C)C(=O)N[C@@H](CCC(N)=O)C(=O)N[C@@H](CCC(=O)O)C(=O)N[C@@H](CCCCN)C(=O)N[C@@H](CC(N)=O)C(=O)N[C@@H](CCC(=O)O)C(=O)N[C@@H](C)C(=O)N[C@@H](C)C(=O)N[C@@H](CC(C)C)C(=O)N[C@@H](CCCCN)C(=O)N[C@@H](CCC(=O)O)C(=O)N[C@@H](CC(C)C)C(=O)O | 57.2 | 
3 | CCCCCCCCCCCCCCC(=O)OC(=O)[C@H](CCC(N)=O)NC(=O)[C@H](CCC(N)=O)NC(=O)[C@H](CCCNC(=N)N)NC(=O)[C@H](CCC(N)=O)NC(=O)[C@H](C)NC(=O)[C@H](CC(=O)O)NC(=O)[C@H](CCCCN)NC(=O)[C@@H](NC(=O)[C@H](CC(C)C)NC(=O)[C@H](C)NC(=O)[C@H](CCC(=O)O)NC(=O)[C@@H](NC(=O)[C@H](CC(N)=O)NC(=O)[C@H](CCCNC(=N)N)NC(=O)[C@@H](NC(=O)[C@H](Cc1ccc(O)cc1)NC(=O)[C@H](CC(N)=O)NC(=O)[C@H](CCC(=O)O)NC(=O)[C@@H](NC(=O)[C@H](CCC(=O)O)NC(=O)[C@H](CCCNC(=N)N)NC(=O)[C@H](CC(=O)O)NC(=O)[C@H](Cc1c[nH]c2ccccc12)NC(=O)[C@H](CCC(N)=O)NC(=O)[C@H](CCC(=O)O)NC(=O)[C@H](Cc1c[nH]c2ccccc12)NC(=O)[C@@H](NC(=O)[C@H](CCCCN)NC(=O)[C@H](CC(N)=O)NC(=O)[C@H](CC(N)=O)NC(=O)[C@H](Cc1c[nH]c2ccccc12)NC(=O)[C@H](CCC(=O)O)NC(=O)[C@@H](N)CCC(N)=O)[C@@H](C)O)[C@@H](C)CC)C(C)C)[C@@H](C)CC)[C@@H](C)CC (H-QEWNNKTWEQWDREIENYVRNIEALIKDAQRQQ-X1) | 222 | 
4 | H-MTWCDWRDEIERYTKKIEELIRAAQEWQEKNEAALKEL-OH | 53 | inhibition [2]: Active; inhibition [3]: Active; Activity [4]: Active; Activity [5]: Active
5 | H-QEWNNKTWEQWDREIENYVRNIEALIKDAQRQQ-OH | 866 | 
6 | H-RAWVAWRNKIDRYTKKIEELIRELIRAAQELQEKNEAALKEL-OH | 338 | 
7 | H-RAWVAWRNKIENYTRRIEELIEELIRRSQEQERRQ-OH | > 2430 | 
8 | H-SIWNNMTWCDWRDEIEEYTKKIEELIKKSQEQASWNWF-OH | 203 | 
9 | H-VEWNARAWVAWRNRIENYAKKIEKLIRQSQEQQ-OH | 1000 | 
